Values quoted from earlier work in patent publication US20050118265A1, “Antifungal oral dosage forms and the methods for preparation” (priority 2003, published 2005).

Tests used:
[1] = based on extrapolation of values obtained from methanolic solutions
[2] = pH 8.1

- pKa [1]: 3.70
- log (n-octanol/water) partition coefficient [2]: 5.66
- solubility in alcohol (alcohol): very slightly soluble
- solubility in dichloromethane (dichloromethane): freely soluble
- solubility in ethanol (ethanol alone): poorly soluble
- solubility in water (water): insoluble
SMILES: CCC(C)n1ncn(-c2ccc(N3CCN(c4ccc(OCC5COC(Cn6cncn6)(c6ccc(Cl)cc6Cl)O5)cc4)CC3)cc2)c1=O (racemic) [Itraconazole, (±)-1-[(RS)-sec-butyl]-4-[p-[4-[p-[[(2R,4S)-2-(2,4-dichlorophenyl)-2-(1H-1,2,4-triazol-1-ylmethyl)-1,3-dioxolan-4-yl]methoxy]phenyl]-1-piperazinyl]phenyl]-Ä 2-1,2,4-triazolin-5-one]
